Where two headings read alike, the source gives them in different places. Square brackets hold non-standard residues; d marks the D form. Peptide text beside a SMILES is read from it. * marks the point of attachment. ξ: configuration not given here. Phe(3-CF3) = N[C@@H](Cc1cccc(C(F)(F)F)c1)C(=O)O; NMeF = CN[C@@H](Cc1ccccc1)C(=O)O; 3Pal = N[C@@H](Cc1cccnc1)C(=O)O; Cha = N[C@@H](CC1CCCCC1)C(=O)O; Cit = NC(=O)NCCC[C@H](N)C(=O)O; NMeL = CN[C@@H](CC(C)C)C(=O)O; ξP = O=C(O)C1CCCN1; OtBu = CC(C)(C)O*; Sar = CNCC(=O)O
Experiment: MDCK monolayer membrane permeability (A→B transport)
Assay type: in vitro ADME, canine
Details: dog
Method: In order to determine the cyclic peptide compounds 9-12 obtained in the above examples, an MDCK model was established to determine their membrane permeability. The MDCK cell line was sourced from Madin Darby canine epithelial cell lines, and the monolayer MDCK cell was the best cytological model to study the in vivo processes such as absorption and reabsorption of drugs in renal tubules. The MDCK cells in a disperse culture flask were digested, and seeded to Millicell CPI at 5×10^4/cm^2; 400 μL of MEM culture solution containing 10% FBS was added to a side A (a luminal side, Apical), and 800 μL of the MEM culture solution was added to a side B (a basolateral side); and the mixture was incubated in an incubator containing 5% CO2 at 37° C. The solution was changed every day. It should be noted that a pipette should not to touch a cell membrane, thereby avoiding damaging the cell layer; and the transmembrane resistance (i.e., trans-epithelial electrical resistance, TEER) was regularly measured by using Millicell2ERS to test the integrity of the cell monolayer.
The A→B transport from the apical end (A) to the basolateral end (B) of the monolayer membrane of the MDCK cells was observed. For the determination of A→B, 450 μL of a drug or a positive control HEPES solution was added to the apical end of the membrane as a feeding cell, and 1300 μL of a blank HEPES solution was added to the basolateral end as a receiving cell. A Transwell plate was placed on a constant-temperature shaker at 37° C. and shaken; after 90 min, a sample solution was extracted respectively from the feeding cell and the receiving cell; acetonitrile was added to precipitate proteins, and then vortexing, centrifuging and transferring were carried out; and the permeance was measured by LC/MS. Based on this permeance, a membrane permeance coefficient (Papp, i.e., apparent permeability, which was a specific evaluation parameter) was calculated. The Papp greater than 1×10^−6 cm/s indicated the absorption of more than 60% of a drug, and the Papp greater than 10×10^−6 cm/s indicated the absorption of more than 80% of drug molecules.

[1] = apical to basolateral, MDCK monolayer, 37° C., 90 min, LC/MS, read-out: MDCK Papp(A − B)
[2] = MDCK A→B, not, read-out: Papp values

Row | Papp A→B at 90 min [1] [×10⁻⁶ cm/s] | Papp A→B at 90 min [2] [×10⁻⁶ cm/s] | SMILES
1 | 0.9 |  | CC(C)C[C@@H]1NC(=O)CNC(=O)[C@H](CC(N)=O)NC(=O)C2CCCN2C(=O)[C@H]2CCCN2C(=O)[C@H](CCC(=O)OC(C)(C)C)NC(=O)CN(C)C(=O)[C@H](CCCNC(N)=O)NC(=O)[C@H](CC(C)C)N(C)C(=O)[C@H](Cc2ccccc2)N(C)C1=O (stereo partly drawn) [Compound 12] (cyclo([Cit][Sar]E(OtBu)[dP][ξP]NGL[NMeF][NMeL]))
2 | 4.8 |  | CC(C)C[C@@H]1NC(=O)CNC(=O)[C@H](CC(N)=O)NC(=O)C2CCCN2C(=O)[C@H]2CCCN2C(=O)[C@H](CCC(=O)OC(C)(C)C)NC(=O)CN(C)C(=O)[C@H](Cc2cccnc2)NC(=O)[C@H](CC(C)C)N(C)C(=O)[C@H](Cc2ccccc2)N(C)C1=O (stereo partly drawn) [Compound 10] (cyclo([3Pal][Sar]E(OtBu)[dP][ξP]NGL[NMeF][NMeL]))
3 | 16.2 | > 10 | CC(C)C[C@@H]1NC(=O)CNC(=O)[C@H](CC(N)=O)NC(=O)C2CCCN2C(=O)[C@H]2CCCN2C(=O)[C@H](CCC(=O)OC(C)(C)C)NC(=O)CN(C)C(=O)[C@H](CC2CCCCC2)NC(=O)[C@H](CC(C)C)N(C)C(=O)[C@H](Cc2ccccc2)N(C)C1=O (stereo partly drawn) [Compound 11] (cyclo([Cha][Sar]E(OtBu)[dP][ξP]NGL[NMeF][NMeL]))
4 | 11.3 | > 10 | CC(C)C[C@@H]1NC(=O)CNC(=O)[C@H](CC(N)=O)NC(=O)C2CCCN2C(=O)[C@H]2CCCN2C(=O)[C@H](CCC(=O)OC(C)(C)C)NC(=O)CN(C)C(=O)[C@H](Cc2cccc(C(F)(F)F)c2)NC(=O)[C@H](CC(C)C)N(C)C(=O)[C@H](Cc2ccccc2)N(C)C1=O (stereo partly drawn) [Compound 9] (cyclo(E(OtBu)[dP][ξP]NGL[NMeF][NMeL][Phe(3-CF3)][Sar]))

Source: US20240271329A1, “CYCLIC COMPOUND LIBRARY AND CONSTRUCTION METHOD THEREFOR” (Yafei Shanghai Biology Medicine Science & Technology Co. …, priority 2021, published 2024)
